“And” between values parts separate entries of the source, which are not always exact repeats. Identical values can stand only once. Inconclusive results and toxic doses are left out.

The experiment concerns P388 leukemia ip, CD2F1 mice, survival T/C. Nature of the experiment: NCI In Vivo Anticancer Drug Screen. Data for tumor model P388 Leukemia (intraperitoneal) in CD2F1 (CDF1) mice. Particulars: endpoint: median survival time, higher = longer survival. The essentials: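 Mice carrying the transplanted tumor received test compound or vehicle. Survival was recorded in each group, and the value is the treated-group measurement divided by that of the vehicle-treated control group.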

Setting [1] is: dose: 50.0 mg/kg/injection, schedule: Q01DX005 (ip), vehicle: saline with Tween-80.
Where [2] appears, read: dose: 100.0 mg/kg/injection, schedule: Q01DX005 (ip), vehicle: saline with Tween-80.
The mark [3] stands for this setting: dose: 200.0 mg/kg/injection, schedule: Q01DX005 (ip), vehicle: saline with Tween-80.
The mark [4] stands for this setting: dose: 3.12 mg/kg/injection, schedule: Q01DX009 (ip), vehicle: saline with Tween-80.
Setting [5] is: dose: 12.5 mg/kg/injection, schedule: Q01DX009 (ip), vehicle: saline with Tween-80.
Setting [6] is: dose: 25.0 mg/kg/injection, schedule: Q01DX009 (ip), vehicle: saline with Tween-80.
The mark [7] stands for this setting: dose: 50.0 mg/kg/injection, schedule: Q01DX009 (ip), vehicle: saline with Tween-80.
The mark [8] stands for this setting: dose: 100.0 mg/kg/injection, schedule: Q01DX009 (ip), vehicle: saline with Tween-80.
Where [9] appears, read: dose: 200.0 mg/kg/injection, schedule: Q01DX009 (ip), vehicle: saline with Tween-80.
The mark [10] stands for this setting: dose: 100.0 mg/kg/injection, schedule: Q01DX001 (ip), vehicle: saline with Tween-80.
The mark [11] stands for this setting: dose: 200.0 mg/kg/injection, schedule: Q01DX001 (ip), vehicle: saline with Tween-80.
The mark [12] stands for this setting: dose: 400.0 mg/kg/injection, schedule: Q01DX001 (ip), vehicle: saline with Tween-80.
Setting [13] is: dose: 400.0 mg/kg/injection, schedule: Q01DX009 (ip), vehicle: saline with Tween-80.

Turning to `COc1cccc2c1C(CO)N1C(C#N)C3CC(C(=O)O)C(C1C2)N3C` (stereo not given), the T/C reads like this: (dose: 0.78 mg/kg/injection, schedule: Q01DX005 (ip), vehicle: suspension in saline) 116 % of control and 122 % of control; (dose: 1.56 mg/kg/injection, schedule: Q01DX005 (ip), vehicle: suspension in saline) 122 % of control; (dose: 3.12 mg/kg/injection, schedule: Q01DX005 (ip), vehicle: saline) 150 % of control; (dose: 6.25 mg/kg/injection, schedule: Q01DX005 (ip), vehicle: saline) 157 % of control; (dose: 6.25 mg/kg/injection, schedule: Q01DX005 (ip), vehicle: suspension in saline) 159 % of control; (dose: 12.5 mg/kg/injection, schedule: Q01DX005 (ip), vehicle: saline) 160 % of control. Moreover, the T/C runs as follows: (dose: 12.5 mg/kg/injection, schedule: Q01DX005 (ip), vehicle: suspension in saline) 150 % of control and 178 % of control and 186 % of control; (dose: 25.0 mg/kg/injection, schedule: Q01DX005 (ip), vehicle: saline) 200 % of control.
As to `O=C1CS(=O)(=O)C(c2ccccc2Cl)N1N1C(=O)CS(=O)(=O)C1c1ccccc1Cl` (stereo not given), the T/C runs as follows: under setting [1], 96 % of control; under setting [2], 90 % of control; under setting [3], 89 % of control.
Regarding `O=[N+]([O-])c1ccc(C2OC(c3ccncc3)=NC2CO)cc1` (stereo not given), the T/C (dose: 50.0 mg/kg/injection, schedule: Q01DX009 (ip), vehicle: saline) is 97 % of control; the T/C (dose: 100.0 mg/kg/injection, schedule: Q01DX009 (ip), vehicle: saline) is 91 % of control; the T/C (dose: 200.0 mg/kg/injection, schedule: Q01DX009 (ip), vehicle: saline) was 106 % of control.
With `Nc1nc(N)c2c(n1)CCC(C(=O)Nc1ccc(Cl)cc1)C2` (stereo not given), the T/C was 94 % of control under setting [1], 96 % of control under setting [2] and 96 % of control under setting [3].
On to `N#CN(Cc1ccccc1)C(c1ccccc1)(c1ccccc1)c1ccccc1`, for which the T/C (dose: 100.0 mg/kg/injection, schedule: Q01DX001 (ip), vehicle: Klucel (hydroxypropylcellulose) (HPC)) was 90 % of control and the T/C (dose: 200.0 mg/kg/injection, schedule: Q01DX001 (ip), vehicle: Klucel (hydroxypropylcellulose) (HPC)) is 91 % of control.
As to `CC(C)c1ccc2nc3ccc(C(=O)NCCN(C)C)cn3c(=O)c2c1`, the T/C is 105 % of control (dose: 60.0 mg/kg/injection, schedule: Q01DX005 (ip), vehicle: Klucel (hydroxypropylcellulose) (HPC)) and 101 % of control (dose: 120.0 mg/kg/injection, schedule: Q01DX005 (ip), vehicle: Klucel (hydroxypropylcellulose) (HPC)).
As for `NC(=S)N/N=C/c1ccc(OC(=O)COc2ccc(Cl)cc2)cn1`, the T/C by setting is: under setting [4], 118 % of control; (dose: 6.25 mg/kg/injection, schedule: Q01DX009 (ip), vehicle: saline with Tween-80) 159 % of control; under setting [5], 156 % of control and 157 % of control; under setting [6], 184 % of control; under setting [7], 188 % of control and 189 % of control; under setting [8], 225 % of control and 88 % of control. For the same compound, under setting [9], the T/C was 86 % of control.
Consider `CC1(CC(C)(C)c2ccccc2)OCCO1`, for which the T/C was 96 % of control (dose: 25.0 mg/kg/injection, schedule: Q01DX009 (ip), vehicle: water); 91 % of control (dose: 50.0 mg/kg/injection, schedule: Q01DX009 (ip), vehicle: water); 102 % of control (dose: 100.0 mg/kg/injection, schedule: Q01DX009 (ip), vehicle: water); 93 % of control (dose: 200.0 mg/kg/injection, schedule: Q01DX009 (ip), vehicle: water); 104 % of control (dose: 400.0 mg/kg/injection, schedule: Q01DX009 (ip), vehicle: water).
With `CN(C)Cc1cccc[c]1[Sn]([CH3])([Br])[c]1ccccc1CN(C)C`, under “dose: 3.12 mg/kg/injection, schedule: Q01DX009 (ip), vehicle: saline”, the T/C is 101 % of control and 113 % of control and 88 % of control.
Turning to `N#CCCn1ccc2ccccc21`, the T/C runs as follows: (dose: 100.0 mg/kg/injection, schedule: Q04DX003 (ip), vehicle: other) 113 % of control; (dose: 200.0 mg/kg/injection, schedule: Q04DX003 (ip), vehicle: other) 100 % of control; (dose: 400.0 mg/kg/injection, schedule: Q04DX003 (ip), vehicle: other) 90 % of control.
In the case of `CN1C(=O)n2c(nc3ccccc32)C(N2CCOCC2)(N2CCOCC2)C1=O`, the T/C runs as follows: under setting [10], 103 % of control; under setting [11], 96 % of control; under setting [12], 89 % of control.
With `CCOC(=O)C12CCC(C(=O)OCC)(CC13SCCS3)C1(C2)SCCS1`, the T/C is 97 % of control under setting [10], 99 % of control under setting [11] and 97 % of control under setting [12].
For `Oc1cc(O)cc(/C=C/c2ccccc2)c1`, the T/C (dose: 50.0 mg/kg/injection, schedule: Q01DX005 (ip), vehicle: water) was 107 % of control and the T/C (dose: 100.0 mg/kg/injection, schedule: Q01DX005 (ip), vehicle: water) is 101 % of control.
Take `Cc1ccc(N=S(C)C)cc1`: the T/C (dose: 100.0 mg/kg/injection, schedule: Q04DX002 (ip), vehicle: Klucel (hydroxypropylcellulose) (HPC)) is 100 % of control; the T/C (dose: 200.0 mg/kg/injection, schedule: Q04DX002 (ip), vehicle: Klucel (hydroxypropylcellulose) (HPC)) is 101 % of control; the T/C (dose: 400.0 mg/kg/injection, schedule: Q04DX002 (ip), vehicle: Klucel (hydroxypropylcellulose) (HPC)) is 113 % of control.
Take `COC(CN(Cc1cccs1)S(=O)(=O)c1ccc(C)cc1)OC`: the T/C is 94 % of control (dose: 50.0 mg/kg/injection, schedule: Q01DX005 (ip), vehicle: Klucel (hydroxypropylcellulose) (HPC)); 94 % of control (dose: 100.0 mg/kg/injection, schedule: Q01DX005 (ip), vehicle: Klucel (hydroxypropylcellulose) (HPC)); 99 % of control (dose: 200.0 mg/kg/injection, schedule: Q01DX005 (ip), vehicle: Klucel (hydroxypropylcellulose) (HPC)).
For `O=C(O)c1ccccc1Nc1cccc([N+](=O)[O-])c1`, the T/C is 99 % of control (dose: 25.0 mg/kg/injection, schedule: Q04DX003 (ip), vehicle: saline); 114 % of control (dose: 50.0 mg/kg/injection, schedule: Q04DX003 (ip), vehicle: saline); 114 % of control (dose: 100.0 mg/kg/injection, schedule: Q04DX003 (ip), vehicle: saline); 112 % of control (dose: 200.0 mg/kg/injection, schedule: Q04DX003 (ip), vehicle: saline).
Turning to `CCCCCCCCCC(=O)C1C(c2ccccc2)CC(=O)C(CCCCCCCC)C1c1ccccc1` (stereo not given), the T/C is 87 % of control (dose: 12.5 mg/kg/injection, schedule: Q01DX005 (ip), vehicle: saline with Tween-80); 98 % of control (dose: 25.0 mg/kg/injection, schedule: Q01DX005 (ip), vehicle: saline with Tween-80); 109 % of control and 93 % of control under setting [1]; 105 % of control under setting [2]; 115 % of control under setting [3].
Take `CCN(CC)Cc1cc(C)c(O)c(N=Nc2ccc3ccc4cccc5ccc2c3c45)c1C`: the T/C reads like this: under setting [5], 94 % of control; under setting [6], 87 % of control; under setting [7], 99 % of control and 122 % of control and 90 % of control; under setting [8], 105 % of control and 118 % of control and 94 % of control; under setting [9], 100 % of control and 105 % of control; under setting [13], 107 % of control.
With `N#CC(C(=O)N1CCCC1)=C(S)S`, the T/C by setting is: under setting [8], 100 % of control; under setting [9], 100 % of control; under setting [13], 100 % of control.
On to `CCC(=O)Sc1ccccc1C(=O)Nc1ccc(Cl)cc1`, for which the T/C is, setting by setting: under setting [8], 121 % of control and 86 % of control; under setting [9], 97 % of control.
`CC(C)(Sc1ccc(Cl)cc1)C(=O)OCCN1CCCCC1`: the T/C by setting is: (dose: 60.0 mg/kg/injection, schedule: Q01DX005 (ip), vehicle: saline with Tween-80) 91 % of control; (dose: 120.0 mg/kg/injection, schedule: Q01DX005 (ip), vehicle: saline with Tween-80) 92 % of control; (dose: 240.0 mg/kg/injection, schedule: Q01DX005 (ip), vehicle: saline with Tween-80) 92 % of control.
As for `O=C1Nc2ccccc2C1=O`, the T/C by setting is: under setting [7], 100 % of control; under setting [8], 101 % of control; under setting [9], 105 % of control.
For `CC[CH](C)[Sn](=[O])[c]1ccccc1` (stereo not given), the T/C was 101 % of control (dose: 0.39 mg/kg/injection, schedule: Q01DX009 (ip), vehicle: saline); 117 % of control (dose: 0.79 mg/kg/injection, schedule: Q01DX009 (ip), vehicle: saline); 153 % of control under setting [4].

Values taken from PubChem BioAssay AID330 (DTP/NCI, 2004).
